Measured values as given in ChEMBL document CHEMBL1201862, “PubChem BioAssay data set” (2004).
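Method: 48-hour compound exposure of cells in 96-well plates, five concentrations, linear interpolation of endpoints. Abbreviation: GI50, concentration required for 50% inhibition of growth.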 The source made the active and inactive calls. Rule as the data show it: active = GI50 up to about 1.1 µM and inactive = higher.

Assays:
Assay in all cases: inhibition of tumour cell growth, NCI panel, 48 h
A498 = system: A498
A549 = system: A549
CAKI-1 = system: CAKI-1
CCRF-CEM = system: CCRF-CEM
COLO 205 = system: COLO 205
DLD-1 = system: DLD-1
DMS-114 = system: DMS-114
DMS-273 = system: DMS-273
EKVX = system: EKVX
HCC 2998 = system: HCC 2998
HCT-116 = system: HCT-116
HCT-15 = system: HCT-15
HL-60 = system: HL-60
HOP-18 = system: HOP-18
HOP-62 = system: HOP-62
HOP-92 = system: HOP-92
HT-29 = system: HT-29
IGROV-1 = system: IGROV-1
K562 = system: K562
KM12 = system: KM12
LOX IMVI = system: LOX IMVI
M19-MEL = system: M19-MEL
MCF7 = system: MCF7
MOLT-4 = system: MOLT-4
NCI-H226 = system: NCI-H226
NCI-H23 = system: NCI-H23
NCI-H460 = system: NCI-H460
NCI-H522 = system: NCI-H522
NCI/ADR-RES = system: NCI/ADR-RES
OVCAR-3 = system: OVCAR-3
OVCAR-4 = system: OVCAR-4
OVCAR-5 = system: OVCAR-5
OVCAR-8 = system: OVCAR-8
RPMI-8226 = system: RPMI-8226
SF-268 = system: SF-268
SF-295 = system: SF-295
SF-539 = system: SF-539
SK-MEL-28 = system: SK-MEL-28
SK-MEL-2 = system: SK-MEL-2
SK-MEL-5 = system: SK-MEL-5
SK-OV-3 = system: SK-OV-3
SN12C = system: SN12C
SNB-19 = system: SNB-19
SNB-75 = system: SNB-75
SW-620 = system: SW-620
U-251 = system: U-251
UACC-257 = system: UACC-257
UACC-62 = system: UACC-62
UO-31 = system: UO-31
XF498 = system: XF498
786-0 = system: 786-0
ACHN = system: ACHN
LXFL 529 = system: LXFL 529
Malme-3M = system: Malme-3M
RXF 393 = system: RXF 393
SNB-78 = system: SNB-78
SR = system: SR
TK-10 = system: TK-10
KM-20L2 = system: KM-20L2
M14 = system: M14

`CC(=O)Oc1c(OC(C)=O)c(-c2ccc(O)c(O)c2)c(O)c(O)c1-c1ccc(O)cc1` was tested, and the GI50 (A498) was > 100 µM (inactive), the GI50 (A549) was > 100 µM (inactive) and the GI50 (CAKI-1) was > 100 µM (inactive). For the same compound, the GI50 (CCRF-CEM) was 61 µM (inactive), the GI50 (COLO 205) was > 100 µM (inactive) and the GI50 (DLD-1) was > 100 µM (inactive). For the same compound, the GI50 (DMS-114) was 21.3 µM (inactive), the GI50 (DMS-273) was > 100 µM (inactive) and the GI50 (EKVX) was > 100 µM (inactive). The GI50 (HCC 2998) was > 100 µM (inactive), the GI50 (HCT-116) was > 100 µM (inactive) and the GI50 (HCT-15) was greater than 100 µM. For the same compound, the GI50 (HL-60) was 54.2 µM (inactive), the GI50 (HOP-18) was > 100 µM (inactive) and the GI50 (HOP-62) was > 100 µM (inactive). The GI50 (HOP-92) was 30.2 µM (inactive), the GI50 (HT-29) was > 100 µM (inactive) and the GI50 (IGROV-1) was 93.1 µM (inactive). The GI50 (K562) was 50.7 µM (inactive), the GI50 (KM12) was > 100 µM (inactive) and the GI50 (LOX IMVI) was 29.9 µM (inactive). The GI50 (M19-MEL) was 24.4 µM (inactive), the GI50 (MCF7) was > 100 µM (inactive) and the GI50 (MOLT-4) was > 100 µM (inactive). For the same compound, the GI50 (NCI-H226) was > 100 µM (inactive), the GI50 (NCI-H23) was > 100 µM (inactive) and the GI50 (NCI-H460) was > 100 µM (inactive). For the same compound, the GI50 (NCI-H522) was 17.7 µM (inactive), the GI50 (NCI/ADR-RES) was > 100 µM (inactive) and the GI50 (OVCAR-3) was > 100 µM (inactive). For the same compound, the GI50 (OVCAR-4) was > 100 µM (inactive), the GI50 (OVCAR-5) was > 100 µM (inactive) and the GI50 (OVCAR-8) was 46.2 µM (inactive). The GI50 (RPMI-8226) was > 100 µM (inactive), the GI50 (SF-268) was > 100 µM (inactive) and the GI50 (SF-295) was > 100 µM (inactive). The GI50 (SF-539) was > 100 µM (inactive), the GI50 (SK-MEL-28) was > 100 µM (inactive) and the GI50 (SK-MEL-2) was 29.4 µM (inactive). For the same compound, the GI50 (SK-MEL-5) was 19.7 µM (inactive), the GI50 (SK-OV-3) was > 100 µM (inactive) and the GI50 (SN12C) was > 100 µM (inactive). For the same compound, the GI50 (SNB-19) was > 100 µM (inactive), the GI50 (SNB-75) was 97.5 µM (inactive) and the GI50 (SW-620) was 42.7 µM (inactive). The GI50 (U-251) was > 100 µM (inactive), the GI50 (UACC-257) was > 100 µM (inactive) and the GI50 (UACC-62) was 27.4 µM (inactive). For the same compound, the GI50 (UO-31) was > 100 µM (inactive) and the GI50 (XF498) was 82.2 µM (inactive).
`N#Cc1ccccc1Sc1ccccc1N` was tested, and the GI50 (786-0) was > 100 µM (inactive), the GI50 (A498) was > 100 µM (inactive) and the GI50 (A549) was 67.3 µM (inactive). For the same compound, the GI50 (ACHN) was > 100 µM (inactive), the GI50 (CAKI-1) was 36 µM (inactive) and the GI50 (CCRF-CEM) was 73.1 µM (inactive). For the same compound, the GI50 (COLO 205) was > 100 µM (inactive), the GI50 (DLD-1) was 93.1 µM (inactive) and the GI50 (DMS-114) was 49.1 µM (inactive). The GI50 (DMS-273) was > 100 µM (inactive), the GI50 (EKVX) was 77.1 µM (inactive) and the GI50 (HL-60) was 72.6 µM (inactive). The GI50 (HOP-18) was 27 µM (inactive), the GI50 (HOP-62) was > 100 µM (inactive) and the GI50 (HOP-92) was 20.7 µM (inactive). For the same compound, the GI50 (HT-29) was > 100 µM (inactive), the GI50 (IGROV-1) was 31.7 µM (inactive) and the GI50 (K562) was 70.6 µM (inactive). The GI50 (KM12) was 93.3 µM (inactive), the GI50 (LOX IMVI) was > 100 µM (inactive) and the GI50 (LXFL 529) was 61.5 µM (inactive). For the same compound, the GI50 (M19-MEL) was > 100 µM (inactive), the GI50 (MOLT-4) was 43.8 µM (inactive) and the GI50 (Malme-3M) was 42.8 µM (inactive). The GI50 (NCI-H226) was 13 µM (inactive), the GI50 (NCI-H23) was 67.8 µM (inactive) and the GI50 (NCI-H460) was > 100 µM (inactive). For the same compound, the GI50 (OVCAR-4) was 64.4 µM (inactive), the GI50 (OVCAR-5) was 36.1 µM (inactive) and the GI50 (OVCAR-8) was > 100 µM (inactive). The GI50 (RXF 393) was 80.2 µM (inactive), the GI50 (SF-268) was > 100 µM (inactive) and the GI50 (SF-295) was > 100 µM (inactive). The GI50 (SF-539) was > 100 µM (inactive), the GI50 (SK-MEL-28) was > 100 µM (inactive) and the GI50 (SK-MEL-2) was > 100 µM (inactive). For the same compound, the GI50 (SK-MEL-5) was 18.7 µM (inactive), the GI50 (SK-OV-3) was > 100 µM (inactive) and the GI50 (SN12C) was 78.3 µM (inactive). For the same compound, the GI50 (SNB-19) was > 100 µM (inactive), the GI50 (SNB-78) was > 100 µM (inactive) and the GI50 (SR) was 72.6 µM (inactive). The GI50 (SW-620) was > 100 µM (inactive), the GI50 (TK-10) was > 100 µM (inactive) and the GI50 (U-251) was > 100 µM (inactive). For the same compound, the GI50 (UACC-257) was > 100 µM (inactive), the GI50 (UACC-62) was 50.1 µM (inactive) and the GI50 (UO-31) was 45.6 µM (inactive). For the same compound, the GI50 (XF498) was 92 µM (inactive).
In the case of `NC(=O)c1cccc(C2OC(COP(=O)(O)O)C(O)C2O)c1` (configuration not stated), the GI50 (786-0) is reported as 21.7 µM (inactive), the GI50 (A498) is reported as > 50 µM (inactive) and the GI50 (A549) is reported as > 50 µM (inactive). For the same compound, the GI50 (ACHN) was > 50 µM (inactive), the GI50 (CAKI-1) was > 50 µM (inactive) and the GI50 (CCRF-CEM) was 9.93 µM (inactive). The GI50 (COLO 205) was > 50 µM (inactive), the GI50 (DLD-1) was 36.6 µM (inactive) and the GI50 (DMS-273) was 48 µM (inactive). The GI50 (EKVX) was > 50 µM (inactive), the GI50 (HCC 2998) was > 50 µM (inactive) and the GI50 (HCT-116) was > 50 µM (inactive). The GI50 (HCT-15) was 27.4 µM, the GI50 (HL-60) was 20.7 µM (inactive) and the GI50 (HOP-62) was > 50 µM (inactive). For the same compound, the GI50 (HT-29) was > 50 µM (inactive), the GI50 (IGROV-1) was > 50 µM (inactive) and the GI50 (K562) was 26.8 µM (inactive). For the same compound, the GI50 (KM-20L2) was > 50 µM (inactive), the GI50 (KM12) was > 50 µM (inactive) and the GI50 (LOX IMVI) was > 50 µM (inactive). For the same compound, the GI50 (LXFL 529) was > 50 µM (inactive), the GI50 (M14) was 20 µM (inactive) and the GI50 (M19-MEL) was > 50 µM (inactive). The GI50 (MOLT-4) was 10.9 µM (inactive), the GI50 (Malme-3M) was > 50 µM (inactive) and the GI50 (NCI-H226) was 32.9 µM (inactive). The GI50 (NCI-H23) was > 50 µM (inactive), the GI50 (NCI-H460) was > 50 µM (inactive) and the GI50 (NCI-H522) was > 50 µM (inactive). For the same compound, the GI50 (OVCAR-3) was > 50 µM (inactive), the GI50 (OVCAR-5) was > 50 µM (inactive) and the GI50 (OVCAR-8) was 16 µM (inactive). The GI50 (RPMI-8226) was > 50 µM (inactive), the GI50 (RXF 393) was 18.6 µM (inactive) and the GI50 (SF-268) was 36.9 µM (inactive). The GI50 (SF-295) was 39.1 µM (inactive), the GI50 (SF-539) was 15.8 µM (inactive) and the GI50 (SK-MEL-28) was 45.9 µM (inactive). For the same compound, the GI50 (SK-MEL-2) was > 50 µM (inactive), the GI50 (SK-MEL-5) was > 50 µM (inactive) and the GI50 (SK-OV-3) was > 50 µM (inactive). The GI50 (SN12C) was > 50 µM (inactive), the GI50 (SNB-19) was > 50 µM (inactive) and the GI50 (SNB-75) was 14.4 µM (inactive). For the same compound, the GI50 (SNB-78) was 43.7 µM (inactive), the GI50 (SW-620) was 42.9 µM (inactive) and the GI50 (TK-10) was > 50 µM (inactive). For the same compound, the GI50 (U-251) was > 50 µM (inactive), the GI50 (UACC-257) was > 50 µM (inactive) and the GI50 (UACC-62) was > 50 µM (inactive). The GI50 (UO-31) was 26.1 µM (inactive) and the GI50 (XF498) was 14.7 µM (inactive).
